Earlier results as cited in US20050089572A1, “Controlled release drug delivery system of pravastatin” (priority 2002, published 2005).

Conditions: pH 3 or less as found in the stomach; degrades to lactone and 3-α-hydroxy-isopravastatin

stability at low pH: very unstable
Compound: CC[C@H](C)C(=O)O[C@H]1C[C@H](O)C=C2C=C[C@H](C)[C@H](CC[C@@H](O)C[C@@H](O)CC(=O)O)[C@H]21 [Pravastatin sodium, (+)-(3R, 5R)-3,5-dihydroxy-7-[(1S,2S,6S,8S,8aR)-6-hydroxy-2-methyl-8-[(S)-2-methylbutyryloxy]-1,2,6,7,8,8a-hexahydro-1-naphthyl] heptanoate]
